Measurements published in PubChem BioAssay (NCI).
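Growth conditions: 96-well plates. Treatment: test compound, 48 hours, 5 concentrations. Analysis: linear interpolation between bracketing concentrations; unreached endpoints set to highest concentration. TGI: concentration producing complete growth inhibition.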

Key:
Assay in all cases: NCI anticancer screen, dose series, 48 h
786-0 renal = tested on: 786-0 renal
A498 renal = tested on: A498 renal
A549 NSCLC = tested on: A549 NSCLC
ACHN renal = tested on: ACHN renal
BT-549 breast = tested on: BT-549 breast
CAKI-1 renal = tested on: CAKI-1 renal
CCRF-CEM leukemia = tested on: CCRF-CEM leukemia
DU-145 prostate = tested on: DU-145 prostate
EKVX NSCLC = tested on: EKVX NSCLC
HCC-2998 colon = tested on: HCC-2998 colon
HCT-116 colon = tested on: HCT-116 colon
HCT-15 colon = tested on: HCT-15 colon
HL-60(TB) leukemia = tested on: HL-60(TB) leukemia
HOP-62 NSCLC = tested on: HOP-62 NSCLC
HS 578T breast = tested on: HS 578T breast
HT29 colon = tested on: HT29 colon
IGROV1 ovarian = tested on: IGROV1 ovarian
K-562 leukemia = tested on: K-562 leukemia
KM12 colon = tested on: KM12 colon
LOX IMVI melanoma = tested on: LOX IMVI melanoma
MALME-3M melanoma = tested on: MALME-3M melanoma
MDA-MB-231 breast = tested on: MDA-MB-231 breast
MDA-N = tested on: MDA-N
MOLT-4 leukemia = tested on: MOLT-4 leukemia
NCI-H226 lung = tested on: NCI-H226 lung
NCI-H23 lung = tested on: NCI-H23 lung
NCI-H460 lung = tested on: NCI-H460 lung
NCI-H522 lung = tested on: NCI-H522 lung
NCI/ADR-RES ovarian = tested on: NCI/ADR-RES ovarian
OVCAR-3 ovarian = tested on: OVCAR-3 ovarian
OVCAR-4 ovarian = tested on: OVCAR-4 ovarian
OVCAR-8 ovarian = tested on: OVCAR-8 ovarian
PC-3 prostate = tested on: PC-3 prostate
RPMI-8226 leukemia = tested on: RPMI-8226 leukemia
SF-268 CNS = tested on: SF-268 CNS
SF-295 CNS = tested on: SF-295 CNS
SF-539 CNS = tested on: SF-539 CNS
SK-MEL-28 melanoma = tested on: SK-MEL-28 melanoma
SK-MEL-5 melanoma = tested on: SK-MEL-5 melanoma
SK-OV-3 ovarian = tested on: SK-OV-3 ovarian
SN12C renal = tested on: SN12C renal
SNB-19 CNS = tested on: SNB-19 CNS
SR leukemia = tested on: SR leukemia
SW-620 colon = tested on: SW-620 colon
T-47D breast = tested on: T-47D breast
TK-10 renal = tested on: TK-10 renal
UACC-257 melanoma = tested on: UACC-257 melanoma
UACC-62 melanoma = tested on: UACC-62 melanoma
COLO 205 colon = tested on: COLO 205 colon
HOP-92 NSCLC = tested on: HOP-92 NSCLC
M14 melanoma = tested on: M14 melanoma
MCF7 breast = tested on: MCF7 breast
MDA-MB-435 = tested on: MDA-MB-435
OVCAR-5 ovarian = tested on: OVCAR-5 ovarian
RXF 393 renal = tested on: RXF 393 renal
SK-MEL-2 melanoma = tested on: SK-MEL-2 melanoma
SNB-75 CNS = tested on: SNB-75 CNS
U251 CNS = tested on: U251 CNS
UO-31 renal = tested on: UO-31 renal

Measured: TGI

CN(N)c1cc(=O)[nH]c(=O)[nH]1
50.6 µM: BT-549 breast
not listed: COLO 205 colon | HOP-92 NSCLC | M14 melanoma | MCF7 breast | MDA-MB-435 | OVCAR-5 ovarian | RXF 393 renal | SK-MEL-2 melanoma | SNB-75 CNS | U251 CNS | UO-31 renal
> 100 µM: all other assays above

COc1cccc2c1OC(c1ccc(C#N)cc1)C([N+](=O)[O-])=C2 (stereo unspecified)
7.67 µM: SK-OV-3 ovarian
3.15 µM: COLO 205 colon | HCC-2998 colon
3.27 µM: HOP-92 NSCLC
4.38 µM: SK-MEL-2 melanoma
3.33 µM: UACC-62 melanoma
4.51 µM: CCRF-CEM leukemia
16.1 µM: SF-268 CNS
4.6 µM: OVCAR-3 ovarian
5.62 µM: HL-60(TB) leukemia
9.75 µM: NCI-H226 lung
7.77 µM: TK-10 renal
19.2 µM: SNB-19 CNS
3.76 µM: IGROV1 ovarian
9.39 µM: DU-145 prostate
4.23 µM: SF-539 CNS
4.13 µM: PC-3 prostate
8.3 µM: HOP-62 NSCLC
2.92 µM: MDA-MB-231 breast
0.412 µM: NCI-H522 lung
5.28 µM: OVCAR-8 ovarian
18.9 µM: EKVX NSCLC
7.03 µM: A549 NSCLC
3.01 µM: UO-31 renal
4.92 µM: NCI-H460 lung
2.97 µM: MALME-3M melanoma
3.56 µM: U251 CNS
3.49 µM: ACHN renal
2.8 µM: HCT-116 colon | SW-620 colon
2.72 µM: MDA-MB-435
2.68 µM: UACC-257 melanoma
3.38 µM: LOX IMVI melanoma
2.85 µM: BT-549 breast
7.32 µM: SNB-75 CNS
3.12 µM: RXF 393 renal
4.89 µM: CAKI-1 renal
11.9 µM: 786-0 renal
> 100 µM: K-562 leukemia | NCI/ADR-RES ovarian
3.14 µM: HT29 colon
4.37 µM: SN12C renal
18.5 µM: SF-295 CNS
3.72 µM: OVCAR-5 ovarian
3.18 µM: M14 melanoma
5.93 µM: SK-MEL-28 melanoma
3.25 µM: NCI-H23 lung
4.03 µM: A498 renal
5.74 µM: HS 578T breast
2.88 µM: MCF7 breast
3.11 µM: HCT-15 colon | OVCAR-4 ovarian | SR leukemia
2.87 µM: MDA-N | SK-MEL-5 melanoma

CNC(=O)N(CCC#N)CCCN(C(=O)NC)c1ccccc1
not listed: A498 renal | HS 578T breast | SF-268 CNS
> 100 µM: all other assays above

N#Cc1c(N)[nH]c(=S)c(C#N)c1-c1ccccc1
not listed: NCI/ADR-RES ovarian | OVCAR-4 ovarian | SK-OV-3 ovarian | COLO 205 colon | HOP-92 NSCLC | M14 melanoma | MDA-MB-435
> 100 µM: all other assays above
